Experimental data reported in patent publication US20230111310A1, “CARBOXYLIC ACID DERIVATIVE-SUBSTITUTED IMINO ARYL COMPOUND, PREPARATION METHOD THEREFOR, HERBICIDAL COMPOSITION AND USE THEREOF” (Qingdao Kingagroot Chemical Compound Co., Ltd., priority 2020, published 2023).

Test system: Digitaria sanguinalis
Experiment: Weeding effect in post-emergence stage
Assay type: in vivo
Conditions: Dose 15 g/ha; level of fresh weight growth control rate
Method in brief: (§1)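 Weeds were treated post-emergence at 2-3 leaves with compound doses from 7.5 up to 500 g/ha, formulated in acetone–Tween 80 with methyl oleate synergist. Efficacy was assessed as growth control after 3 weeks.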

SMILES	Weeding effect in post-emergence stage, Digitaria sanguinalis
COC(=O)[C@@H](C)O/N=C/c1cc(-n2c(=O)n(C)c(=S)n(C)c2=O)c(F)cc1C#N [87(R)]	5 (Level 5: growth control rate is above 85%)
CCOC(=O)[C@@H](C)O/N=C/c1cc(-n2c(=O)n(C)c(=S)n(C)c2=O)c(F)cc1C#N [88(R)]	5 (Level 5: growth control rate is above 85%)
COC(=O)[C@@H](C)O/N=C/c1cc(-n2c(=O)n(C)c(=S)n(C)c2=S)c(F)cc1Cl [124(R)]	5 (Level 5: growth control rate is above 85%)
CCOC(=O)[C@@H](C)O/N=C/c1cc(-n2c(=O)n(C)c(=S)n(C)c2=S)c(F)cc1Br [161(R)]	4 (Level 4: growth control rate is greater than or equal to 60% and less than 85%)
COC(=O)[C@@H](C)O/N=C/c1cc(-n2c(=O)n(C)c(=O)n(C)c2=O)c(F)cc1Cl [164(R)]	5 (Level 5: growth control rate is above 85%)
CCSC(=O)[C@@H](C)O/N=C/c1cc(-n2c(=O)n(C)c(=S)n(C)c2=O)c(F)cc1Cl [168(R)]	5 (Level 5: growth control rate is above 85%)

Test system: Abutilon theophrasti
Experiment: Weeding effect in post-emergence stage
Assay type: in vivo
Conditions: Dose 15 g/ha; level of fresh weight growth control rate
Method in brief: as §1

SMILES	Weeding effect in post-emergence stage, Abutilon theophrasti
COC(=O)[C@@H](C)O/N=C/c1cc(-n2c(=O)n(C)c(=S)n(C)c2=O)c(F)cc1C#N [87(R)]	5 (Level 5: growth control rate is above 85%)
CCOC(=O)[C@@H](C)O/N=C/c1cc(-n2c(=O)n(C)c(=S)n(C)c2=O)c(F)cc1C#N [88(R)]	5 (Level 5: growth control rate is above 85%)
COC(=O)[C@@H](C)O/N=C/c1cc(-n2c(=O)n(C)c(=S)n(C)c2=S)c(F)cc1Cl [124(R)]	5 (Level 5: growth control rate is above 85%)
CCOC(=O)[C@@H](C)O/N=C/c1cc(-n2c(=O)n(C)c(=S)n(C)c2=S)c(F)cc1Br [161(R)]	5 (Level 5: growth control rate is above 85%)
COC(=O)[C@@H](C)O/N=C/c1cc(-n2c(=O)n(C)c(=O)n(C)c2=O)c(F)cc1Cl [164(R)]	5 (Level 5: growth control rate is above 85%)
CCSC(=O)[C@@H](C)O/N=C/c1cc(-n2c(=O)n(C)c(=S)n(C)c2=O)c(F)cc1Cl [168(R)]	5 (Level 5: growth control rate is above 85%)

Test system: Eleusine indica
Experiment: Weeding effect in post-emergence stage
Assay type: in vivo
Conditions: Dose 15 g/ha; level of fresh weight growth control rate
Method in brief: as §1

SMILES	Weeding effect in post-emergence stage, Eleusine indica
COC(=O)[C@@H](C)O/N=C/c1cc(-n2c(=O)n(C)c(=S)n(C)c2=O)c(F)cc1C#N [87(R)]	5 (Level 5: growth control rate is above 85%)
CCOC(=O)[C@@H](C)O/N=C/c1cc(-n2c(=O)n(C)c(=S)n(C)c2=O)c(F)cc1C#N [88(R)]	5 (Level 5: growth control rate is above 85%)
COC(=O)[C@@H](C)O/N=C/c1cc(-n2c(=O)n(C)c(=S)n(C)c2=S)c(F)cc1Cl [124(R)]	5 (Level 5: growth control rate is above 85%)
CCOC(=O)[C@@H](C)O/N=C/c1cc(-n2c(=O)n(C)c(=S)n(C)c2=S)c(F)cc1Br [161(R)]	5 (Level 5: growth control rate is above 85%)
COC(=O)[C@@H](C)O/N=C/c1cc(-n2c(=O)n(C)c(=O)n(C)c2=O)c(F)cc1Cl [164(R)]	5 (Level 5: growth control rate is above 85%)
CCSC(=O)[C@@H](C)O/N=C/c1cc(-n2c(=O)n(C)c(=S)n(C)c2=O)c(F)cc1Cl [168(R)]	5 (Level 5: growth control rate is above 85%)

Test system: Setaria viridis
Experiment: Weeding effect in post-emergence stage
Assay type: in vivo
Conditions: Dose 15 g/ha; level of fresh weight growth control rate
Method in brief: as §1

SMILES	Weeding effect in post-emergence stage, Setaria viridis
COC(=O)[C@@H](C)O/N=C/c1cc(-n2c(=O)n(C)c(=S)n(C)c2=O)c(F)cc1C#N [87(R)]	5 (Level 5: growth control rate is above 85%)
CCOC(=O)[C@@H](C)O/N=C/c1cc(-n2c(=O)n(C)c(=S)n(C)c2=O)c(F)cc1C#N [88(R)]	5 (Level 5: growth control rate is above 85%)
COC(=O)[C@@H](C)O/N=C/c1cc(-n2c(=O)n(C)c(=S)n(C)c2=S)c(F)cc1Cl [124(R)]	5 (Level 5: growth control rate is above 85%)
CCOC(=O)[C@@H](C)O/N=C/c1cc(-n2c(=O)n(C)c(=S)n(C)c2=S)c(F)cc1Br [161(R)]	5 (Level 5: growth control rate is above 85%)
COC(=O)[C@@H](C)O/N=C/c1cc(-n2c(=O)n(C)c(=O)n(C)c2=O)c(F)cc1Cl [164(R)]	5 (Level 5: growth control rate is above 85%)
CCSC(=O)[C@@H](C)O/N=C/c1cc(-n2c(=O)n(C)c(=S)n(C)c2=O)c(F)cc1Cl [168(R)]	5 (Level 5: growth control rate is above 85%)

Test system: Alopecurus japonicus
Experiment: Weeding effect in post-emergence stage
Assay type: in vivo
Conditions: Dose 15 g/ha; level of fresh weight growth control rate
Method in brief: as §1

SMILES	Weeding effect in post-emergence stage, Alopecurus japonicus
COC(=O)[C@@H](C)O/N=C/c1cc(-n2c(=O)n(C)c(=S)n(C)c2=O)c(F)cc1C#N [87(R)]	5 (Level 5: growth control rate is above 85%)
CCOC(=O)[C@@H](C)O/N=C/c1cc(-n2c(=O)n(C)c(=S)n(C)c2=O)c(F)cc1C#N [88(R)]	5 (Level 5: growth control rate is above 85%)
COC(=O)[C@@H](C)O/N=C/c1cc(-n2c(=O)n(C)c(=S)n(C)c2=S)c(F)cc1Cl [124(R)]	5 (Level 5: growth control rate is above 85%)
CCOC(=O)[C@@H](C)O/N=C/c1cc(-n2c(=O)n(C)c(=S)n(C)c2=S)c(F)cc1Br [161(R)]	4 (Level 4: growth control rate is greater than or equal to 60% and less than 85%)
COC(=O)[C@@H](C)O/N=C/c1cc(-n2c(=O)n(C)c(=O)n(C)c2=O)c(F)cc1Cl [164(R)]	5 (Level 5: growth control rate is above 85%)
CCSC(=O)[C@@H](C)O/N=C/c1cc(-n2c(=O)n(C)c(=S)n(C)c2=O)c(F)cc1Cl [168(R)]	5 (Level 5: growth control rate is above 85%)

Test system: Echinochloa crusgalli
Experiment: Weeding effect in post-emergence stage
Assay type: in vivo
Conditions: Dose 15 g/ha; level of fresh weight growth control rate
Method in brief: as §1

SMILES	Weeding effect in post-emergence stage, Echinochloa crusgalli
COC(=O)[C@@H](C)O/N=C/c1cc(-n2c(=O)n(C)c(=S)n(C)c2=O)c(F)cc1C#N [87(R)]	5 (Level 5: growth control rate is above 85%)
CCOC(=O)[C@@H](C)O/N=C/c1cc(-n2c(=O)n(C)c(=S)n(C)c2=O)c(F)cc1C#N [88(R)]	5 (Level 5: growth control rate is above 85%)
COC(=O)[C@@H](C)O/N=C/c1cc(-n2c(=O)n(C)c(=S)n(C)c2=S)c(F)cc1Cl [124(R)]	5 (Level 5: growth control rate is above 85%)
CCOC(=O)[C@@H](C)O/N=C/c1cc(-n2c(=O)n(C)c(=S)n(C)c2=S)c(F)cc1Br [161(R)]	5 (Level 5: growth control rate is above 85%)
COC(=O)[C@@H](C)O/N=C/c1cc(-n2c(=O)n(C)c(=O)n(C)c2=O)c(F)cc1Cl [164(R)]	5 (Level 5: growth control rate is above 85%)
CCSC(=O)[C@@H](C)O/N=C/c1cc(-n2c(=O)n(C)c(=S)n(C)c2=O)c(F)cc1Cl [168(R)]	5 (Level 5: growth control rate is above 85%)
